The test system of data set [1] is HL-60 cells. As to the kind of experiment: HL-60 cell differentiation induction, NBT reducing activity, DMSO as solvent (Example 21). It is filed as cell-based, human. An excerpt: In a manner similar to that in Example 20, the in vitro activity of the glutathione derivatives of Examples 4, 5, and 8, and Comparative Example 3 were compared.
(1) The differences from Example 20 were: First, since the glutathione derivatives of Examples and Comparative Examples used dimethyl sulfoxide (DMSO) as the solvent because of the solubility of the compounds, the system contained 0.1-0.3 (v/v)% DMSO instead of ethanol. […] This caused slight differences in the sensitivity in the test results of the glutathione derivative of Example 4. Furthermore, in Example 21, the differentiation induction on HL-60 cells into granulocytic cells in the coexistence of 9-cis-RA was only evaluated.

The test system of data set [2] is human leukemia cell HL-60. As to the kind of experiment: HL-60 cell differentiation induction, NBT reducing activity (Example 20). It is filed as cell-based. The conditions noted are these: 4 days. How it is done: Using the differentiation induction effect on the granulocytes or monocytes/macrophages obtained by culturing the human leukemia cell HL-60 in the presence of 9-cys-retinoic acid (9-cis-RA) or activated vitamin D3 (1α, 25(OH)2D3), and in the coexistence of the glutathione derivatives of Examples and the Comparative Examples of the present invention, the growth-promotion activity was tested.
(1) HL-60 cells used were purchased from the cell bank (Japanese Cancer Research Resource Bank, Cell No. JCRBOO85). In accordance with a standard method, the lyophilized cell stocks that were thawed before the start of the experiment and subcultured were used.
Subculturing was carried out by centrifuging (1500 rpm, 5 minutes) the cells in suspension culture and recovering and by diluting it in a fresh culture liquid at a concentration of about 1/100 (1 to 2×10^4 cells/ml). As the culture liquid, an RPMI 1640 medium containing 10% fetal bovine serum was used.
(2) The cells subcultured in (1) were recovered by centrifugation (1500 rpm, 5 minutes), and were dispersed in the culture liquid at 2×10^4 cells/ml, which were plated on a 24-well culture plate at 1 ml/well. To this system were added the glutathione derivatives of Example 4, Example 11, Comparative Example 1 and Comparative Example 2 and a differentiation induction substance (9-cis-RA or 1α, 25(OH)2D3). Thus, 1 μl per well each of an ethanol solution of the differentiation induction substances 9-cis-RA and 1α, 25(OH)2D3 were added at 5×10^−6 M and 2×10^−6 M, respectively. Then, 1 μl per well each of ethanol solutions of the glutathione derivatives at 1×10^−4 M to 1×10^−2 M was added. As the solvent treatment for the control, 1 μl of ethanol per well was added in stead of the glutathione derivative, and as the single treatment of glutathione derivatives, 1 μl of ethanol per well was added in stead of the differentiation induction substance. After culturing at 37° C. and 5% CO2 for 4 days, the cells were recovered by centrifugation (1500 rpm, 5 minutes).
(3) The measurement of a nitroblue tetrazolium (NBT) reducing activity which is often used for the evaluation of differentiation induction effects on monocytes/macrophages or granulocytic cells was carried out according to the following procedure. Thus, the cells recovered by centrifugation in (2) were suspended in a fresh culture medium, and then NBT was added thereto to […] and 12-O-tetradecanoyl phorbol-13-acetate to 100 nM. After incubating at 37° C. for 25 minutes, cytospin samples were prepared. After air drying, the cells were subjected to Kernechtrot stain, and 500 cells per sample were examined under alight microscope to determine the ratio of the NBT reduction activity-positive cells.
(4) The result of the experiment in which glutathione derivatives at 10^−7 to 10^−5 M were treated together with a differentiation induction substances is shown in Table 4. For a single treatment of each glutathione derivative up to 10^−5 M, no increases in the NBT reducing activity was observed. In a combined treatment of a glutathione derivative and a differentiation induction substance, an enhanced ratio of the NBT reduction activity-positive cells relative to the single treatment with a differentiation induction substance was observed depending on the concentration of the glutathione derivative. There were no major differences observed in the strength of effects between the glutathione derivatives of Examples 4 and 11 and Comparative Examples 1, and 2.

The subject of data set [3] is rabbit liver esterase. As to the kind of experiment: Decomposition of glutathione derivatives by rabbit liver esterase (physiological stability). Type of data set: in vitro ADME. Conditions: BSA/D-PBS pH 7.4, 196-244 μg/ml. How it is done: (1) Bovine serum albumin (hereinafter referred to as BSA), Dulbecco's phosphate buffered saline (hereinafter referred to as D-PBS), swine liver esterase, and rabbit liver esterase were purchased from Sigma, 6-week old male SD rats were purchased from Nippon SLC, and 12-week old or older male Japanese white rabbits were purchased from Ichikawaya. On the day of the incubation experiment described below, blood was drawn from the animals in the presence of heparin, and plasma was separated therefrom for use. Human plasma was obtained from normal healthy males after obtaining their consent.
(2) The glutathione derivatives described in the Examples and Comparative Examples of the present invention were incubated for a fixed time in an enzyme solution having the following composition. Acetonitrile was added to the reaction mixture to inactivate the enzyme thereby to stop the reaction. The concentration of the glutathione derivatives in the deproteinized supernatant was measured by HPLC. For each time point of the esterase enzyme experiment, the mean values from two measurement or more were determined, and for the rats and rabbits the mean values of plasma samples from three individuals were determined. For some of the experiment data, changes with time of percentages relative to initial concentration of the glutathione derivative are shown in FIGS. 2 to 4.
Swine liver esterase and rabbit liver esterase experiment
30 mg-BSA/ml-D-PBS (pH 7.4): 36 to 45 parts
Swine or rabbit liver esterase/D-PBS: 4-5 parts
10 mg-glutathione derivative/ml-ethanol: one part (the final concentration in the reaction mixture is 196-244 μg/ml)

A short description of data set [4]: Pharmacokinetics after intravenous administration to rabbits, 2-compartment model (Example 25). Type of data set: in vivo, rabbit. The conditions noted are these: iv auricular vein 2 ml/kg, fat emulsion (Comparative Ex. 1: HPCD/glucose solution). An excerpt: For the glutathione derivative of the present invention having a long-chain ester having 12 carbons or more and the glutathione derivatives of the conventional technology of Comparative Examples 1 and 2, kinetics in the blood were compared in rabbits that are a species having allow esterase activity in the blood.
(1) Male Japanese white rabbits, 12-week old or older, were purchased from Ichikawaya, and those rabbits that became 15-week old or older and whose body weight reached about 3 kg were used for the experiment. During the period up to the experiment, the animals were allowed free access to the animal feed and drinking water and were kept at a temperature of 24±2° C. and a humidity of 55±5%.
(2) The glutathione derivative having a long-chain ester of 12 carbons or more and the glutathione derivative of Comparative Example 2 were prepared at 20-200 mg/ml in a mixture of ethanol or ethanol:benzyl alcohol, which was mixed with the fat emulsion just prior to use, and was filtered with a 1.2 μm filter to obtain a liquid for intravenous administration. On the other hand, the glutathione derivative of Comparative Example 1 was dissolved in an aqueous solution of 6%-hydroxypropyl-β-cyclodextrin/5%-glucose at 15 mg/ml to obtain an administration liquid.
(3) The administration liquid of the glutathione derivative obtained in (2) at a dose of 2 ml/kg was rapidly infused into the left auricular vein of the rabbits under no anesthesia and under restraint at a rate of 1 ml/min. Each glutathione derivative was given to three or more rabbits. At 5, 10, 15, 30, 60, 120, and 240 minutes after the completion of the administration, 1 ml of the blood was drawn from the right auricular vein in the presence of heparin, which was immediately cooled on ice. Plasma was obtained by centrifuging the blood, 1-2 volume parts of acetonitrile was added to deproteinize the supernatant, which was filtered by a 0.5 μm filter. The supernatant of the filtrate was quantitated by HPLC.

[5] abbreviates: compound 3 × 10^−6 M in DMSO, Solvent control (EtOH - 0.1%).
Setting [6] is: compound 3 × 10^−6 M in DMSO, with 9-cis-RA (5 × 10^−9 M).
Where [7] appears, read: compound 3 × 10^−7 M in DMSO, Solvent control (EtOH - 0.1%).
Setting [8] is: compound 3 × 10^−7 M in DMSO, with 9-cis-RA (5 × 10^−9 M).
The mark [9] stands for this setting: compound 3 × 10^−8 M in DMSO, Solvent control (EtOH - 0.1%).
Setting [10] is: compound 3 × 10^−8 M in DMSO, with 9-cis-RA (5 × 10^−9 M).
Where [11] appears, read: compound 10^−6 M in DMSO, Solvent control (EtOH - 0.1%).
Setting [12] is: compound 10^−6 M in DMSO, with 9-cis-RA (5 × 10^−9 M).
Where [13] appears, read: compound 10^−7 M in DMSO, Solvent control (EtOH - 0.1%).
Where [14] appears, read: compound 10^−7 M in DMSO, with 9-cis-RA (5 × 10^−9 M).
[15] abbreviates: compound 10^−8 M in DMSO, Solvent control (EtOH - 0.1%).
Setting [16] is: compound 10^−8 M in DMSO, with 9-cis-RA (5 × 10^−9 M).

Structures can show the parent of a compound that is named as a salt. Starred links: 1 amine or outer side, 2 acyl side, 3 side chain; linkers in the order of their positions; H or OH if unused. Non-standard residues stand in square brackets, D forms with d. Residues, ends and D or L forms follow the SMILES beside them. *: point of attachment. γGlu = O=C(O)[C@H](CCC(=O)[*:2])N[*:1]; dPhg = N[C@@H](C(=O)O)c1ccccc1; Bn = c1ccc(C*)cc1

Take `N[C@@H](CCC(=O)N[C@@H](CSCc1ccccc1)C(=O)N[C@@H](C(=O)O)c1ccccc1)C(=O)O` [Comparative Example 3, Glu(Cys(Bzl)-D-Phg-OH)-OH Hydrochloride, reference compound] (γGlu-Cys(Bn)-[dPhg]-OH): the “Ratio of NBT reduction activity-positive cells” value in data set [1] (setting [5]) turned out to be 0.6%; in data set [1] (setting [6]), 17.1%; in data set [1] (setting [7]), 0.6%; in data set [1] (setting [8]), 3.8%; in data set [1] (setting [9]) it was 0.5%; in data set [1] (setting [10]) it was 2.8%. For the same compound, the “Ratio of NBT reduction activity-positive cells” value is listed as 0.3% in data set [1] (setting [11]); 6.1% in data set [1] (setting [12]); 0.3% in data set [1] (setting [13]); 3.5% in data set [1] (setting [14]); 0.7% in data set [1] (setting [15]); 3.1% in data set [1] (setting [16]).

With `CCCCCCCCCCCCCCCCOC(=O)[C@H](NC(=O)[C@H](CSCc1ccccc1)NC(=O)CC[C@H](N)C(=O)OCC)c1ccccc1.Cl` [Example 8, Glu(Cys(Bzl)-D-Phg-O(Hexadecyl))-OEt Hydrochloride], the “Ratio of NBT reduction activity-positive cells” value is 0.7% in data set [1] (setting [5]); 16.9% in data set [1] (setting [6]); 0.9% in data set [1] (setting [7]); 4.7% in data set [1] (setting [8]); 0.4% in data set [1] (setting [9]); 3.2% in data set [1] (setting [10]). Moreover, the “Ratio of NBT reduction activity-positive cells” value was 0.8% in data set [1] (setting [11]); 8.8% in data set [1] (setting [12]); 0.8% in data set [1] (setting [13]); 4.2% in data set [1] (setting [14]); 0.5% in data set [1] (setting [15]); 2.9% in data set [1] (setting [16]).

With `CCCCCCCCCCCCCCCCOC(=O)[C@H](NC(=O)[C@H](CSCc1ccccc1)NC(=O)CC[C@H](N)C(=O)O)c1ccccc1.Cl` [Example 11, Glu(Cys(Bzl)-D-Phg-O(Hexadecyl))Hydrochloride], the “Ratio of NBT reduction activity-positive cells” value was 0.8% in data set [2] (compound 10^−5 M, Solvent control (EtOH), no differentiation induction substance); 13.8% in data set [2] (compound 10^−5 M, with 1α,25(OH)2D3 (2 × 10^−9 M)); 19.8% in data set [2] (compound 10^−5 M, with 9-cis-RA (5 × 10^−9 M)); 0.2% in data set [2] (compound 10^−6 M, Solvent control (EtOH), no differentiation induction substance); 4.8% in data set [2] (compound 10^−6 M, with 1α,25(OH)2D3 (2 × 10^−9 M)); 11.2% in data set [2] (compound 10^−6 M, with 9-cis-RA (5 × 10^−9 M)). The “Ratio of NBT reduction activity-positive cells” value in data set [2] (compound 10^−7 M, Solvent control (EtOH), no differentiation induction substance) is 0.6%; in data set [2] (compound 10^−7 M, with 1α,25(OH)2D3 (2 × 10^−9 M)), 5.1%; in data set [2] (compound 10^−7 M, with 9-cis-RA (5 × 10^−9 M)), 8.8%.

As to `CCCCCCCCCCCCCCCCCCCCCCOC(=O)[C@@H](N)CCC(=O)N[C@@H](CSCc1ccccc1)C(=O)N[C@@H](C(=O)OCC)c1ccccc1.Cl` [Example 2, Glu(Cys(Bzl)-D-Phg-OEt)-O(Docosyl)hydrochloride], the “Decomposition rate constant by rabbit liver esterase” value in data set [3] was 0.523 10^−4/unit/min. In data set [4], the “Clearance per body weight” value was 0.83 mL/min/kg and the “Distribution volume per body weight of the central compartment” value is 0.07 L/kg.

As for `CCCCCCCCCCCCCCCCOC(=O)[C@H](CCC(=O)N[C@@H](CSCc1ccccc1)C(=O)N[C@@H](C(=O)OCC)c1ccccc1)NC(C)=O` [Example 5, Ac-Glu(Cys(Bzl)-D-Phg-OEt)-O(Hexadecyl)], the “Ratio of NBT reduction activity-positive cells” value in data set [1] (setting [5]) is listed as 0.2%; in data set [1] (setting [6]), 11.2%; in data set [1] (setting [7]), 0.7%; in data set [1] (setting [8]), 4.3%; in data set [1] (setting [9]), 0.7%; in data set [1] (setting [10]), 2.1%. The “Ratio of NBT reduction activity-positive cells” value amounted to 0.3% in data set [1] (setting [11]); 6.5% in data set [1] (setting [12]); 0.9% in data set [1] (setting [13]); 3.2% in data set [1] (setting [14]); 0.3% in data set [1] (setting [15]); 2.5% in data set [1] (setting [16]).

(Values after US6627732B1, “Glutathione derivatives and their dosage forms” (Teijin Limited, priority 1998, dated 2003).)
